Experimental data taken from ChEMBL document CHEMBL5032527, “N-(4-acetamidophenyl)-5-acetylfuran-2-carboxamide as a novel orally available diuretic that targets urea transporters with improved PD and PK properties” (Eur J Med Chem, 2021).
Active and inactive are the calls of the source. The calls are words filed in the database; no cut-off is given here.

Test system: Mus musculus
Assay: Diuretic activity in mouse assessed as increase in urine output at 100 mg/kg, IG measured after 7 days
Assay type: functional, organism-based
Conditions: time 7.0 day

Compound	Activity
CC(=O)Nc1ccc(NC(=O)c2ccc(C(C)=O)o2)cc1	Active

Molecular target: Voltage-gated inwardly rectifying potassium channel KCNH2 (Homo sapiens, UniProt Q12809)
Sequence (Q12809 whole entry): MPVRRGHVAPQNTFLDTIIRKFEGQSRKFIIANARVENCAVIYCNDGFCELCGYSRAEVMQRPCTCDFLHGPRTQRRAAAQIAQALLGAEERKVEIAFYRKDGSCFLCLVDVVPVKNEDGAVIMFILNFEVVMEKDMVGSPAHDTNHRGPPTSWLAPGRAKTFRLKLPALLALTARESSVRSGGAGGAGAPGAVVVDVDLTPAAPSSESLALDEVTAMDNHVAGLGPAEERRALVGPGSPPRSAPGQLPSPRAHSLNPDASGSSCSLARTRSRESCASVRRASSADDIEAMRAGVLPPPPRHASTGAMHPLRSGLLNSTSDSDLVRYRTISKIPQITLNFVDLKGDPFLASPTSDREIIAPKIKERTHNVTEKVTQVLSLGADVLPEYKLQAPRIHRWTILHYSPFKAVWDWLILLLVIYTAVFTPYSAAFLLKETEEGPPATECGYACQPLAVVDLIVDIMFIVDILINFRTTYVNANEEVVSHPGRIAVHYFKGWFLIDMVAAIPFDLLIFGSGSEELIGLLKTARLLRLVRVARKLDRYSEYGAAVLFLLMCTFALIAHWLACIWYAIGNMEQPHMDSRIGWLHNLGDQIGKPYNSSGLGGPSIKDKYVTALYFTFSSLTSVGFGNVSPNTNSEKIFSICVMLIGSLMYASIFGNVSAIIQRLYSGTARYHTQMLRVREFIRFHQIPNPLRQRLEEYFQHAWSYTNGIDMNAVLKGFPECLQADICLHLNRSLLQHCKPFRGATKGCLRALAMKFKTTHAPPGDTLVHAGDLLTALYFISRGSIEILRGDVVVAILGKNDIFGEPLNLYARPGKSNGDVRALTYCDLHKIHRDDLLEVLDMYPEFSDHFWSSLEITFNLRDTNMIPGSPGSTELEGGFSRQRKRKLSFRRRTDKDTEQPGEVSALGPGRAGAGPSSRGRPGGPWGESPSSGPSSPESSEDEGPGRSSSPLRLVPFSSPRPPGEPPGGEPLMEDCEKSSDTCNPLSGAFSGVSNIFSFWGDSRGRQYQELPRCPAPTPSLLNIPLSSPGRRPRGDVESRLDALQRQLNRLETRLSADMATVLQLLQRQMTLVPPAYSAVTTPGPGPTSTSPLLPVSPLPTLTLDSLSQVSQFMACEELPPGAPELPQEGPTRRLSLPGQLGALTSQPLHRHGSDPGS
Assay: Inhibition of hERG
Conditions: read-out: INH

Compound	IC50 [nM]
CC(=O)Nc1ccc(NC(=O)c2ccc(C(C)=O)o2)cc1	> 100000

Test system: Rattus norvegicus
Assay: Diuretic activity in Sprague-Dawley rat assessed as increase in urine volume at 100 mg/kg, IG
Assay type: functional, organism-based
Conditions: TDE = time-dependent effect

Compound	Activity
CC(=O)Nc1ccc(NC(=O)c2ccc(C(C)=O)o2)cc1	Tde

Test system: not listed separately
Assay: Half life in Sprague-Dawley rat at 100 mg/kg, po by LC-MS/MS analysis
Assay type: ADME, organism-based
Conditions: in vivo

t1/2 [h]	Compound
0.93	CC(=O)Nc1ccc(NC(=O)c2ccc([N+](=O)[O-])o2)cc1

Test system: Rattus norvegicus
Assay: Diuretic activity in Sprague-Dawley rat assessed as increase in urine volume at 50 mg/kg, IG after 2 hrs
Assay type: functional, organism-based
Conditions: not given

Compound	Activity
CC(=O)Nc1ccc(NC(=O)c2ccc(C(C)=O)o2)cc1	Active

Molecular target: T1, Urea transporter 1 (Rattus norvegicus, UniProt P97689)
T1 sequence (P97689 whole entry): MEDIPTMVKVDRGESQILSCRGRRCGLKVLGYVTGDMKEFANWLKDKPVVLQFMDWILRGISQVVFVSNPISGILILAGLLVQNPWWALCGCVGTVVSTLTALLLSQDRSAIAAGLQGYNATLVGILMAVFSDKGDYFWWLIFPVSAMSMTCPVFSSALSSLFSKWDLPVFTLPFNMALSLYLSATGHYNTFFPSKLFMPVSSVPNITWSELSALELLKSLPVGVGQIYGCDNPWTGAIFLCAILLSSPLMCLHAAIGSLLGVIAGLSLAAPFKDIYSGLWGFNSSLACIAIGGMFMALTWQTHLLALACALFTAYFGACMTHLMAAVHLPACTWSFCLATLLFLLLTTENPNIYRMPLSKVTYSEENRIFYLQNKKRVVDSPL
Assay: Inhibition of rat UT-B expressed in MDCK cells
Assay type: cell-based
Conditions: not given

IC50 [nM]	Compound
2770	O=C(Nc1ccc(NS(=O)(=O)c2ccc(C(F)(F)F)cc2)cc1)c1ccc([N+](=O)[O-])o1
> 10000	CC(=O)Nc1ccc(NC(=O)c2ccc(C(=O)C(C)(C)C)o2)cc1
660	O=C(Nc1ccc(NS(=O)(=O)c2cccc(F)c2)cc1)c1ccc([N+](=O)[O-])o1
870	O=C(Nc1ccc(NS(=O)(=O)c2ccccc2C(F)(F)F)cc1)c1ccc([N+](=O)[O-])o1
> 10000	CC(=O)Nc1ccc(NC(=O)c2ccc(C(F)F)o2)cc1
3170	O=C1Cc2cc(NC(=O)c3ccc([N+](=O)[O-])o3)ccc2N1
6050	O=C(Nc1cccc2ccc(=O)[nH]c12)c1ccc([N+](=O)[O-])o1
810	O=C(Nc1ccc(NS(=O)(=O)c2cccc(Br)c2)cc1)c1ccc([N+](=O)[O-])o1
1040	O=C(Nc1ccc(NS(=O)(=O)c2ccccc2F)cc1)c1ccc([N+](=O)[O-])o1
> 10000	O=C(Nc1cccc2[nH]c(=O)ccc12)c1ccc([N+](=O)[O-])o1
1410	CC(=O)Nc1ccc(NC(=O)c2ccc([N+](=O)[O-])o2)cc1
530	O=C(Nc1ccc(NS(=O)(=O)c2ccccc2Cl)cc1)c1ccc([N+](=O)[O-])o1
1060	O=C1CCc2cc(NC(=O)c3ccc([N+](=O)[O-])o3)ccc2N1
280	CCS(=O)(=O)Nc1ccc(NC(=O)c2ccc([N+](=O)[O-])o2)cc1
> 10000	CC(=O)Nc1ccc(NC(=O)c2ccc(C(=O)c3ccccc3)o2)cc1
6470	CC(=O)Nc1ccc(NC(=O)c2ccc(F)o2)cc1
110	O=C(Nc1ccc(NS(=O)(=O)c2ccccc2)cc1)c1ccc([N+](=O)[O-])o1
150	CC(=O)c1ccc(C(=O)Nc2ccc(NS(=O)(=O)c3ccccc3)cc2)o1
640	O=C(Nc1ccc(NS(=O)(=O)c2ccc(F)cc2)cc1)c1ccc([N+](=O)[O-])o1
1660	O=C(Nc1ccc(NS(=O)(=O)c2cccc(C(F)(F)F)c2)cc1)c1ccc([N+](=O)[O-])o1
600	O=C(Nc1ccc2ccc(=O)[nH]c2c1)c1ccc([N+](=O)[O-])o1
430	O=C(Nc1ccc(NS(=O)(=O)c2ccc(Cl)cc2)cc1)c1ccc([N+](=O)[O-])o1
1230	O=C(Nc1ccc2[nH]c(=O)ccc2c1)c1ccc([N+](=O)[O-])o1
750	O=C(Nc1ccc(NS(=O)(=O)c2cccc(Cl)c2)cc1)c1ccc([N+](=O)[O-])o1

Test system: not listed separately
Assay: Metabolic stability in Sprague-Dawley rat liver microsomes assessed as percentage of compound remaining after 240 mins by LC-MS/MS analysis
Assay type: ADME, Microsome
Conditions: read-out: Stability

remaining at 4 h [%]	Compound
20	CC(=O)Nc1ccc(NC(=O)c2ccc(C(C)=O)o2)cc1
20	CC(=O)Nc1ccc(NC(=O)c2ccc([N+](=O)[O-])o2)cc1

Molecular target: T2, Urea transporter 1 (Mus musculus, UniProt Q8VHL0)
T2 sequence (Q8VHL0 whole entry): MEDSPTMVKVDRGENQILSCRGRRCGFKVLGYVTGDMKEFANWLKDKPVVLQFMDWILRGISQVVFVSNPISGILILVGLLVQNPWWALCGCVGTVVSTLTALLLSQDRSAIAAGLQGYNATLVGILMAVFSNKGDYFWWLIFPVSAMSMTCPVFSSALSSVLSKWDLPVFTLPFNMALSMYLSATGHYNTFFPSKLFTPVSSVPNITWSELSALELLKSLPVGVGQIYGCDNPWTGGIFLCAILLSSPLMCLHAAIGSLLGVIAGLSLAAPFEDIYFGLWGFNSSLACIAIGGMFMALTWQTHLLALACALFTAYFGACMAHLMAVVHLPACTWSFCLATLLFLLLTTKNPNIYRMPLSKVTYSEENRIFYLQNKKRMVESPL
Assay: Inhibition of mouse UT-B expressed in MDCK cells
Assay type: cell-based
Conditions: not given

IC50 [nM]	Compound
3470	O=C(Nc1ccc(NS(=O)(=O)c2ccc(C(F)(F)F)cc2)cc1)c1ccc([N+](=O)[O-])o1
> 10000	CC(=O)Nc1ccc(NC(=O)c2ccc(C(=O)C(C)(C)C)o2)cc1
1320	O=C(Nc1ccc(NS(=O)(=O)c2cccc(F)c2)cc1)c1ccc([N+](=O)[O-])o1
1490	O=C(Nc1ccc(NS(=O)(=O)c2ccccc2C(F)(F)F)cc1)c1ccc([N+](=O)[O-])o1
> 10000	CC(=O)Nc1ccc(NC(=O)c2ccc(C(F)F)o2)cc1
4990	O=C1Cc2cc(NC(=O)c3ccc([N+](=O)[O-])o3)ccc2N1
> 10000	O=C(Nc1cccc2ccc(=O)[nH]c12)c1ccc([N+](=O)[O-])o1
1600	O=C(Nc1ccc(NS(=O)(=O)c2cccc(Br)c2)cc1)c1ccc([N+](=O)[O-])o1
1680	O=C(Nc1ccc(NS(=O)(=O)c2ccccc2F)cc1)c1ccc([N+](=O)[O-])o1
> 10000	O=C(Nc1cccc2[nH]c(=O)ccc12)c1ccc([N+](=O)[O-])o1
1050	O=C(Nc1ccc(NS(=O)(=O)c2ccccc2Cl)cc1)c1ccc([N+](=O)[O-])o1
2190	O=C1CCc2cc(NC(=O)c3ccc([N+](=O)[O-])o3)ccc2N1
840	CCS(=O)(=O)Nc1ccc(NC(=O)c2ccc([N+](=O)[O-])o2)cc1
9850	CC(=O)Nc1ccc(NC(=O)c2ccc(C(=O)c3ccccc3)o2)cc1
> 10000	CC(=O)Nc1ccc(NC(=O)c2ccc(F)o2)cc1
240	O=C(Nc1ccc(NS(=O)(=O)c2ccccc2)cc1)c1ccc([N+](=O)[O-])o1
160	CC(=O)c1ccc(C(=O)Nc2ccc(NS(=O)(=O)c3ccccc3)cc2)o1
1310	O=C(Nc1ccc(NS(=O)(=O)c2ccc(F)cc2)cc1)c1ccc([N+](=O)[O-])o1
2220	O=C(Nc1ccc(NS(=O)(=O)c2cccc(C(F)(F)F)c2)cc1)c1ccc([N+](=O)[O-])o1
1500	O=C(Nc1ccc2ccc(=O)[nH]c2c1)c1ccc([N+](=O)[O-])o1
690	O=C(Nc1ccc(NS(=O)(=O)c2ccc(Cl)cc2)cc1)c1ccc([N+](=O)[O-])o1
2340	O=C(Nc1ccc2[nH]c(=O)ccc2c1)c1ccc([N+](=O)[O-])o1
1010	O=C(Nc1ccc(NS(=O)(=O)c2cccc(Cl)c2)cc1)c1ccc([N+](=O)[O-])o1

Test system: not listed separately
Assay: Bioavailability in Sprague-Dawley rat at 100 mg/kg, po by LC-MS/MS analysis
Assay type: ADME, organism-based
Conditions: in vivo

bioavailability [%]	Compound
15.8	CC(=O)Nc1ccc(NC(=O)c2ccc(C(C)=O)o2)cc1
4.38	CC(=O)Nc1ccc(NC(=O)c2ccc([N+](=O)[O-])o2)cc1

Test system: Rattus norvegicus
Assay: Diuretic activity in Sprague-Dawley rat assessed as increase in urine volume at 100 mg/kg, IG after 4 hrs
Assay type: functional, organism-based
Conditions: not given

Compound	Activity
CC(=O)Nc1ccc(NC(=O)c2ccc([N+](=O)[O-])o2)cc1	inactive

Organism: Mus musculus
Assay: Diuretic activity in mouse assessed as increase in urine volume
Assay type: functional, organism-based
Conditions: not given

Compound	Activity
CC(=O)Nc1ccc(NC(=O)c2ccc(C(C)=O)o2)cc1	Active

Organism: Rattus norvegicus
Assay: Diuretic activity in IG treated Sprague-Dawley rat assessed as reduction in urine osmolality
Assay type: functional
Conditions: not given

Compound	fold change (FC)
CC(=O)Nc1ccc(NC(=O)c2ccc(C(C)=O)o2)cc1	10

Test system: MDCK
Assay: Cytotoxicity against MDCK cells assessed as reduction in cell viability at 400 uM measured by CCK-8 assay
Assay type: cell-based, Canis lupus familiaris
Conditions: dog

Compound	Activity
CC(=O)Nc1ccc(NC(=O)c2ccc(C(C)=O)o2)cc1	Toxic

Test system: not listed separately
Assay: AUC (0 to t) in Sprague-Dawley rat at 100 mg/kg, po by LC-MS/MS analysis
Assay type: ADME, organism-based
Set-up: dose 100 mg/kg
Conditions: in vivo

AUC(0-t) [ng·h/mL]	Compound
6840	CC(=O)Nc1ccc(NC(=O)c2ccc(C(C)=O)o2)cc1
78.1	CC(=O)Nc1ccc(NC(=O)c2ccc([N+](=O)[O-])o2)cc1

Test system: MDCK
Assay: Cytotoxicity against MDCK cells assessed as reduction in cell viability at 80 uM measured by CCK-8 assay
Assay type: cell-based, Canis lupus familiaris
Conditions: dog

Compound	Activity
CC(=O)c1ccc(C(=O)Nc2ccc(NS(=O)(=O)c3ccccc3)cc2)o1	Toxic

Test system: not listed separately
Assay: in vivo
Conditions: Sprague-Dawley, rat, po, 100 mg/kg

Tmax [h]	Compound
0.21	CC(=O)Nc1ccc(NC(=O)c2ccc(C(C)=O)o2)cc1

Test system: not listed separately
Assay: AUC (0 to infinity) in Sprague-Dawley rat at 100 mg/kg, po by LC-MS/MS analysis
Assay type: ADME, organism-based
Set-up: route oral, time infinity, dose 100 mg/kg
Conditions: in vivo

AUC(0-inf) [ng·h/mL]	Compound
82.5	CC(=O)Nc1ccc(NC(=O)c2ccc([N+](=O)[O-])o2)cc1

Test system: MDCK
Assay: Inhibition of rat UT-A1 expressed in MDCK cells assessed as inhibition of urea transport at 8 uM
Assay type: cell-based
Conditions: not given

Compound	inhibition [%]
CC(=O)Nc1ccc(NC(=O)c2ccc(C(C)=O)o2)cc1	84.4
CC(=O)Nc1ccc(NC(=O)c2ccc([N+](=O)[O-])o2)cc1	102

Test system: not listed separately
Assay: Cmax in Sprague-Dawley rat at 100 mg/kg, po by LC-MS/MS analysis
Assay type: ADME, organism-based
Set-up: route oral, dose 100 mg/kg
Conditions: in vivo

Cmax [ng/mL]	Compound
1240	CC(=O)Nc1ccc(NC(=O)c2ccc(C(C)=O)o2)cc1
74.3	CC(=O)Nc1ccc(NC(=O)c2ccc([N+](=O)[O-])o2)cc1

Test system: not listed separately
Assay: MRT in Sprague-Dawley rat at 100 mg/kg, po by LC-MS/MS analysis
Assay type: ADME, organism-based
Conditions: in vivo

MRT [h]	Compound
5.45	CC(=O)Nc1ccc(NC(=O)c2ccc(C(C)=O)o2)cc1
1.51	CC(=O)Nc1ccc(NC(=O)c2ccc([N+](=O)[O-])o2)cc1

Test system: not listed separately
Assay: Metabolic stability in Sprague-Dawley rat plasma assessed as percentage of compound remaining after 240 mins by LC-MS/MS analysis
Assay type: ADME, cell-free
Conditions: read-out: Stability

remaining at 4 h [%]	Compound
20	CC(=O)Nc1ccc(NC(=O)c2ccc(C(C)=O)o2)cc1
20	CC(=O)Nc1ccc(NC(=O)c2ccc([N+](=O)[O-])o2)cc1

Test system: Rattus norvegicus
Assay: Diuretic activity in Sprague-Dawley rat assessed as increase in urine volume at 100 mg/kg, IG after 2 hrs
Assay type: functional, organism-based
Conditions: not given

Compound	Activity
CC(=O)Nc1ccc(NC(=O)c2ccc(C(C)=O)o2)cc1	Active

Organism: Mus musculus
Assay: Diuretic activity in mouse assessed as reduction in urine osmolality
Assay type: functional, organism-based
Conditions: not given

Compound	Activity
CC(=O)Nc1ccc(NC(=O)c2ccc(C(C)=O)o2)cc1	Active

Molecular target: T3, Urea transporter 1 (Rattus norvegicus) (UniProt P97689)
T3 sequence (whole entry): T1 sequence (P97689 whole entry)
Assay: Inhibition of rat UT-B expressed in MDCK cells assessed as inhibition of urea transport at 8 uM
Assay type: cell-based
Conditions: not given

inhibition [%]	Compound
89.6	CC(=O)Nc1ccc(NC(=O)c2ccc(C(C)=O)o2)cc1
